pIC50: −log10 of the molar value.
Legend:
[1] = test system: HeLa (cervical carcinoma); assay: Proliferation assay (MTT, 72 h) on HeLa; format: cell-based; details: Homo sapiens
Experimental: (§1) Human carcinoma cell lines A549 (lung carcinoma), HeLa (cervical carcinoma), SW620 (colorectal adenocarcinoma, metastatic), and CFPAC-1 (pancreatic cancer, derived from metastatic: liver), normal human lung (WI38) and foreskin (HFF-1) fibroblasts were obtained from the American Type Culture Collection (ATCC). Cells were cultured in humidified atmosphere at 37 °C with 5% CO2. As growth medium, Dulbecco’s modified Eagle medium (DMEM) was used with the addition of foetal bovine serum (10%), L-glutamine (2 mM) and antibiotics: streptomycin (100 µg/ml) and penicillin (100 U/ml).
(§2) Cells were seeded onto 96-well microtiter plates at a seeding density of 3000 cells/well for carcinoma cell lines, and 5000 cells/well for normal human fibroblasts. The next day, cells were treated with test agents in five different concentrations (0.01–100 µM) and further incubated for 72 h. […] Following 72 h incubation, the MTT assay was performed and measured absorbances were transformed into percentage of cell growth as described previously. Results were obtained from three independent experiments. IC50 values were calculated using linear regression analysis and results were statistically analysed by ANOVA, Tukey post-hoc test (p < .05).

[2] = test system: HFF-1 normal human foreskin fibroblasts; assay: Proliferation assay (MTT, 72 h) on normal foreskin fibroblasts HFF-1; format: cell-based; details: compounds 11a–e tested in HFF-1 cell line, read-out: IC50 WI38/HFF-1 (HFF-1)
Experimental: as §1, §2

[3] = test system: CFPAC-1 (ductal pancreatic adenocarcinoma); assay: Proliferation assay (MTT, 72 h) on CFPAC-1; format: cell-based; details: Homo sapiens
Experimental: as §1, §2

A549 (lung carcinoma) = assay: Proliferation assay (MTT, 72 h) on A549; format: cell-based; details: Homo sapiens, A549 lung adenocarcinoma
Experimental: as §1, §2

[4] = test system: SW620 (colorectal adenocarcinoma, metastatic); assay: Proliferation assay (MTT, 72 h) on SW620; format: cell-based; details: Homo sapiens, SW-620
Experimental: as §1, §2

[5] = test system: WI38 normal human lung fibroblasts; assay: Proliferation assay (MTT, 72 h) on normal lung fibroblasts WI38; format: cell-based; details: WI-38, read-out: IC50 WI38/HFF-1 (WI38)
Experimental: as §1, §2

With O=c1cc(Cn2cc(Cn3ccc4ccccc43)nn2)c2ccc(O)cc2o1 [Compound 11e, 4-{[4-((1H-Indol-1-yl)methyl)-1H-1,2,3-triazol-1-yl]methyl}-7-hydroxy-2 H-chromen-2-one] as the compound, how does the pIC50 [1] read?
The pIC50 was 4.08.

What about the pIC50 [2] of the same compound?
The pIC50 was 4.40.

And the pIC50 [3]?
Its pIC50 is under 4.00.

And the melting point?
Its melting point is 155 to 158 °C.

What about the pIC50 (A549 (lung carcinoma)) of the same compound?
The pIC50 was 4.12.

And the pIC50 [4]?
The pIC50 was 4.16.

What does the source list for Clc1ccc(-n2cc(Cn3ccc4ccccc43)nn2)cc1 [Compound 11b, 1-{[1-(4-Chlorophenyl)-1H-1,2,3-triazol-4-yl]methyl}-1H-indole]?
pIC50 [1]: < 4.00; pIC50 [2]: < 4.00; pIC50 [3]: < 4.00; pIC50 (A549 (lung carcinoma)): < 4.00; pIC50 [4]: < 4.00

With Fc1ccc(-n2cc(Cn3ccc4ccccc43)nn2)cc1 [Compound 11a, 1-{[1-(4-Fluorophenyl)-1H-1,2,3-triazol-4-yl]methyl}-1H-indole] as the compound, how does the pIC50 [1] read?
The pIC50 was under 4.00.

What about the pIC50 [2] of the same compound?
Its pIC50 is under 4.00.

And the pIC50 [3]?
The pIC50 was under 4.00.

What about the pIC50 (A549 (lung carcinoma)) of the same compound?
The pIC50 was 4.36.

And the pIC50 [4]?
The pIC50 was 4.36.

With Fc1ccccc1-n1cc(Cn2ccc3ccccc32)nn1 [Compound 11d, 1-{[1-(2-Fluorophenyl)-1H-1,2,3-triazol-4-yl]methyl}-1H-indole] as the compound, how does the pIC50 [1] read?
Its pIC50 is 4.15.

And the pIC50 [2]?
The pIC50 was 4.39.

What about the pIC50 [3] of the same compound?
The pIC50 was 4.07.

And the pIC50 (A549 (lung carcinoma))?
The pIC50 was 4.29.

What about the pIC50 [4] of the same compound?
Its pIC50 is 4.35.

What does the source list for FC(F)(F)c1ccc(-n2cc(Cn3ccc4ccccc43)nn2)cc1 [Compound 11c, 1-{[1-(4-(Trifluoromethyl)phenyl)-1H-1,2,3-triazol-4-yl]methyl}-1H-indole]?
pIC50 [1]: < 4.00; pIC50 [2]: < 4.00; pIC50 [3]: < 4.00; pIC50 (A549 (lung carcinoma)): < 4.00; pIC50 [4]: < 4.00

Which results are given for Fc1ccccc1-n1cc(Cn2ccc3c(Cl)ncnc32)nn1 [Compound 8d, 4-Chloro-7-{[1-(2-fluorophenyl)-1H-1,2,3-triazol-4-yl]methyl}-7H-pyrrolo[2,3-d]pyrimidine]?
pIC50 [1]: 4.08; pIC50 [3]: 4.45; melting point: 112 to 114 °C; pIC50 [5]: 4.65; pIC50 (A549 (lung carcinoma)): 4.16; pIC50 [4]: 4.18

Which results are given for O=c1cc(Cn2cc(Cn3ccc4cc(F)ccc43)nn2)c2ccc(O)cc2o1 [Compound 10e, 4-{[4-((5-Fluoro-1H-indol-1-yl)methyl)-1H-1,2,3-triazol-1-yl]methyl}-7-hydroxy-2H-chromen-2-one]?
pIC50 [1]: 4.32; pIC50 [3]: 4.11; melting point: 181 to 184 °C; pIC50 [5]: 4.34; pIC50 (A549 (lung carcinoma)): 4.28; pIC50 [4]: 4.24

Reference: article PMC6009932, “Small molecule purine and pseudopurine derivatives: synthesis, cytostatic evaluations and investigation of growth inhibitory effect in non-small cell lung cancer A549” (Journal of Enzyme Inhibition and Medicinal Chemistry, 2017)
